Results from patent US7427625B2, “Substituted thiatriazaacenaphthylene-6-carbonitrile kinase inhibitors” (Janssen Pharmaceutica, N.V., priority 2006, dated 2008).

Legend:
[1] = test system: A375 malignant melanoma; assay: Cell Proliferation Inhibition Assay (14C-thymidine incorporation), A375; format: cell-based; conditions: Homo sapiens, A-375
Procedure: (§1) The ability of a test compound to inhibit unregulated cell proliferation was determined by measuring incorporation of ^14C-labelled thymidine into newly synthesized DNA within cell lines derived from carcinomas originating from several tissues. Accordingly, the anti-proliferative effect of a compound on cells with a variety of phenotypes may be determined.
(§2) Carcinoma cell lines include those such as HeLa cervical adenocarcinoma (American Type Culture Collection (ATCC), Virginia, Cat. #CCL-2), A375 malignant melanoma (ATCC CRL-1619), SK-OV-3 ovarian adenocarcinoma (ATCC HTB-77), HCT-116 colon carcinoma (CCL-247), PC-3 prostate adenocarcinoma (ATCC CRL-1435), and MDA-MB-231 (Xenogen Corp.)
(§3) The carcinoma cells were trypsinized and counted. The cells (3000-8000 count) were added to each well of a 96-well CytoStar tissue culture treated scintillating microplate (Amersham #RPNQ0160) in complete medium (100 μL) and the plate was then incubated in complete medium for 24 hrs at 37° C. in an […] atmosphere containing 5% CO2. Test compound (1 μL) in 100% DMSO was added to the plate test-wells with DMSO only added to control-wells. The plate was incubated in complete medium for a second 24 hr period at 37° C. in an atmosphere containing 5% CO2.
(§4) An aliquot of a solution of Methyl ^14C-thymidine ([…]) (NEN #NEC568 or Amersham #CFA532) and complete medium (20 uL to provide 0.2 μCi/well) was then added to each well and the plate was incubated for a third 24 hr period at 37° C. in an atmosphere containing 5% CO2. The plate contents were then discarded, the plate was washed twice with PBS (200 μL) and then PBS (200 μL) was added to each well. The plate was sealed and the degree of methyl ^14C-thymidine incorporation was quantified on a Packard Top Count.

[2] = test system: HCT-116 colon carcinoma; assay: Cell Proliferation Inhibition Assay (14C-thymidine incorporation), HCT116; format: cell-based; conditions: Homo sapiens
Procedure: as §1, §2, §3, §4

[3] = target: T1, Lyn kinase (Homo sapiens, UniProt P07948); assay: Lyn Kinase Assay; format: biochemical; conditions: for inhibition at 2 µM: test concentration of 2 μM, read-out: Lyn percent inhibition
T1 construct: purchased Upstate Biotechnology, Lake Placid, N.Y
Procedure: A mixture of a 10× kinase buffer (500 mM MOPS at pH 7.5, 1 mM EGTA, 1 mM Sodium Vanadate, 1% β-mercaptoethanol and 100 mM Magnesium Acetate), ATP (5 μM final from a 10 mM stock), polyGluTyr (0.1 mg/mL final from a 1 mg/mL stock), γ-^33P ATP (10 μCi/μL stock) and water (20 μL/well) was added to each well of a Streptavidin Flashplate.
Test compound in 100% DMSO (0.5 μL) was added to the appropriate wells. Diluted Lyn kinase (human) (Upstate Biotechnology, Lake Placid, N.Y.) (diluted in a buffer consisting of 50 mM Tris at pH 7.5, 0.1 mM EGTA, Sodium Vanadate (0.1 mM), β-mercaptoethanol (0.1%) and 1 mg/mL bovine serum albumin) (2.5 μL) was added to the wells to initiate the reactions.
The reaction plates were incubated at 30° C. for 40 min. The reaction was terminated by the addition of a 3% phosphoric acid solution (5 μL). The reaction product (10 μL) was spotted onto a P30 filtermat and washed for 5 minutes in phosphoric acid (75 mM). The wash sequence was repeated two more times, followed with one final wash in methanol. The plates were then dried, sealed and read on the TopCount scintillation counter after adding 30 μL scintillation fluid.
Percent inhibition was derived according to the procedure described in Example 2. For those compounds without an IC50, the percent inhibition results are shown at a test concentration of 2 μM.

T1 sequence (P07948 whole entry): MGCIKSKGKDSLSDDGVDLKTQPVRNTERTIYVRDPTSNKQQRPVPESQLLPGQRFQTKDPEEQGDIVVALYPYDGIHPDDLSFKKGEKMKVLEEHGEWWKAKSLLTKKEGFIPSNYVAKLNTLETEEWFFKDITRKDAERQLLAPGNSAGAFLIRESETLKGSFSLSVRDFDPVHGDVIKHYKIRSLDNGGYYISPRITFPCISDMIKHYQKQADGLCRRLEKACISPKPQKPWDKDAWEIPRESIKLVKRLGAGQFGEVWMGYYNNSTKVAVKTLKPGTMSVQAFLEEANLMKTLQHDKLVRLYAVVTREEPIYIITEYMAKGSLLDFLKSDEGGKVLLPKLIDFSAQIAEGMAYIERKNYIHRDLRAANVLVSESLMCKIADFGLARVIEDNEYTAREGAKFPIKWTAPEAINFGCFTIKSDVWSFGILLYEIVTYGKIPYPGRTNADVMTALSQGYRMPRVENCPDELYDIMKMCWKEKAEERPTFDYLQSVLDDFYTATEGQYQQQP

Row | IC50 [1] [µM] | IC50 [2] [µM] | inhibition at 2 µM [3] [%] | Compound | also measured
1 | > 10 | > 10 | – | COc1cc(NC(=O)c2sc3ncc(C#N)c4c3c2NC(=O)N4c2ccc(Oc3ccccc3)cc2)ccc1CN1CCOCC1 [Cpd 45, 6-cyano-4-oxo-5-(4-phenoxy-phenyl)-4,5-dihydro-3H-1-thia-3,5,8-triaza-acenaphthylene-2-carboxylic acid (3-methoxy-4-morpholin-4-ylmethyl-phenyl)-amide] | –
2 | 8.29 | 15.8 | – | N#Cc1cnc2sc(C(=O)Nc3ccc(CCN4CCCCC4)cc3)c3c2c1N(c1ccc(Oc2ccccc2)cc1)C(=O)N3 [Cpd 48, 6-cyano-4-oxo-5-(4-phenoxy-phenyl)-4,5-dihydro-3H-1-thia-3,5,8-triaza-acenaphthylene-2-carboxylic acid [4-(2-piperidin-1-yl-ethyl)-phenyl]-amide] | –
3 | > 10 | > 10 | – | CC(C)(C)OC(=O)NC1CCN(Cc2ccc(NC(=O)c3sc4ncc(C#N)c5c4c3NC(=O)N5c3c(Cl)ccc4c3OCO4)cc2)CC1 [Cpd 46, [1-(4-{[5-(5-chloro-benzo[1,3]dioxol-4-yl)-6-cyano-4-oxo-4,5-dihydro-3H-1-thia-3,5,8-triaza-acenaphthylene-2-carbonyl]-amino}-benzyl)-piperidin-4-yl]-carbamic acid tert-butyl ester] | –
4 | > 100 | > 10 | – | CN(C)C1CCN(C(=O)c2sc3ncc(C#N)c4c3c2NC(=O)N4c2c(Cl)ccc3c2OCO3)CC1 [Cpd 41, 5-(5-chloro-benzo[1,3]dioxol-4-yl)-2-(4-dimethylamino-piperidine-1-carbonyl)-4-oxo-4,5-dihydro-3H-1-thia-3,5,8-triaza-acenaphthylene-6-carbonitrile] | –
5 | > 100 | > 100 | – | CN(C)C1CCN(Cc2ccc(NC(=O)c3sc4ncc(C#N)c5c4c3NC(=O)N5c3c(Cl)ccc4c3OCO4)cc2)CC1 [Cpd 42, 5-(5-chloro-benzo[1,3]dioxol-4-yl)-6-cyano-4-oxo-4,5-dihydro-3H-1-thia-3,5,8-triaza-acenaphthylene-2-carboxylic acid [4-(4-dimethylamino-piperidin-1-ylmethyl)-phenyl]-amide] | –
6 | – | – | 86 | COC1CCN(Cc2ccc(NC(=O)c3sc4ncc(C#N)c5c4c3NC(=O)N5c3c(Cl)ccc4c3OCO4)cc2)CC1 [Cpd 18, 5-(5-chloro-benzo[1,3]dioxol-4-yl)-6-cyano-4-oxo-4,5-dihydro-3H-1-thia-3,5,8-triaza-acenaphthylene-2-carboxylic acid [4-(4-methoxy-piperidin-1-ylmethyl)-phenyl]-amide] | –
7 | 1.38 | 0.985 | – | N#Cc1cnc2sc(C(=O)Nc3ccc(CN4CCCCC4)cc3)c3c2c1N(c1ccc(Oc2ccccc2)cc1)C(=O)N3 [Cpd 49, 6-cyano-4-oxo-5-(4-phenoxy-phenyl)-4,5-dihydro-3H-1-thia-3,5,8-triaza-acenaphthylene-2-carboxylic acid (4-piperidin-1-ylmethyl-phenyl)-amide] | –

The next lines start with the compound.

Row | Compound | IC50 [1] [µM] | IC50 [2] [µM] | inhibition at 2 µM [3] [%] | also measured
8 | CN1CCC(NC(=O)c2sc3ncc(C#N)c4c3c2NC(=O)N4c2c(Cl)ccc3c2OCO3)CC1 [Cpd 10, 5-(5-chloro-benzo[1,3]dioxol-4-yl)-6-cyano-4-oxo-4,5-dihydro-3H-1-thia-3,5,8-triaza-acenaphthylene-2-carboxylic acid (1-methyl-piperidin-4-yl)-amide] | – | – | – | IC50 [3]: 0.268 µM
9 | CN1CCN(CCc2ccc(NC(=O)c3sc4ncc(C#N)c5c4c3NC(=O)N5c3c(Cl)ccc4c3OCO4)cc2)CC1 [Cpd 12, 5-(5-chloro-benzo[1,3]dioxol-4-yl)-6-cyano-4-oxo-4,5-dihydro-3H-1-thia-3,5,8-triaza-acenaphthylene-2-carboxylic acid {4-[2-(4-methyl-piperazin-1-yl)-ethyl]-phenyl}-amide] | – | – | 93 | –
10 | Cc1nc2sc(C(=O)Nc3ccc(CN4CCOCC4)cc3)c3c2c(c1C#N)N(c1c(Cl)ccc2c1OCO2)C(=O)N3 [Cpd 9, 5-(5-chloro-benzo[1,3]dioxol-4-yl)-6-cyano-7-methyl-4-oxo-4,5-dihydro-3H-1-thia-3,5,8-triaza-acenaphthylene-2-carboxylic acid (4-morpholin-4-ylmethyl-phenyl)-amide] | – | – | 58 | –
11 | N#Cc1c(N2CCOCC2)nc2sc(C(=O)Nc3ccc(CN4CCOCC4)cc3)c3c2c1N(c1c(Cl)ccc2c1OCO2)C(=O)N3 [Cpd 8, 5-(5-chloro-benzo[1,3]dioxol-4-yl)-6-cyano-7-morpholin-4-yl-4-oxo-4,5-dihydro-3H-1-thia-3,5,8-triaza-acenaphthylene-2-carboxylic acid (4-morpholin-4-ylmethyl-phenyl)-amide] | – | – | 40 | –
12 | N#Cc1cnc2sc(C(=O)Nc3ccc(CCN4CCCCC4)cc3)c3c2c1N(c1c(Cl)ccc2c1OCO2)C(=O)N3 [Cpd 11, 5-(5-chloro-benzo[1,3]dioxol-4-yl)-6-cyano-4-oxo-4,5-dihydro-3H-1-thia-3,5,8-triaza-acenaphthylene-2-carboxylic acid [4-(2-piperidin-1-yl-ethyl)-phenyl]-amide] | – | – | – | IC50 [3]: 0.113 µM
13 | CCOC(=O)c1sc2nc(N3CCOCC3)c(C#N)c3c2c1NC(=O)N3c1c(Cl)ccc2c1OCO2 [Cpd 7, 5-(5-chloro-benzo[1,3]dioxol-4-yl)-6-cyano-7-morpholin-4-yl-4-oxo-4,5-dihydro-3H-1-thia-3,5,8-triaza-acenaphthylene-2-carboxylic acid ethyl ester] | – | – | 43 | –
14 | N#Cc1cnc2sc(C(=O)Nc3ccc(CCN4CCOCC4)cc3)c3c2c1N(c1c(Cl)ccc2c1OCO2)C(=O)N3 [Cpd 13, 5-(5-chloro-benzo[1,3]dioxol-4-yl)-6-cyano-4-oxo-4,5-dihydro-3H-1-thia-3,5,8-triaza-acenaphthylene-2-carboxylic acid [4-(2-morpholin-4-yl-ethyl)-phenyl]-amide] | – | – | 76 | –
15 | COc1cc(N2C(=O)Nc3c(C(=O)Nc4ccc(CN5CCOCC5)cc4)sc4ncc(C#N)c2c34)c(Cl)cc1Cl [Cpd 5, 6-cyano-5-(2,4-dichloro-5-methoxy-phenyl)-4-oxo-4,5-dihydro-3H-1-thia-3,5,8-triaza-acenaphthylene-2-carboxylic acid (4-morpholin-4-ylmethyl-phenyl)-amide] | – | – | 83 | –
16 | N#Cc1cnc2sc(C(=O)Nc3ccc(CN4CCOCC4)cc3)c3c2c1N(c1c(Cl)ccc2c1OCO2)C(=O)N3 [Cpd 4, 5-(5-chloro-benzo[1,3]dioxol-4-yl)-6-cyano-4-oxo-4,5-dihydro-3H-1-thia-3,5,8-triaza-acenaphthylene-2-carboxylic acid (4-morpholin-4-ylmethyl-phenyl)-amide] | – | – | – | IC50 [3]: 0.477 µM
17 | COc1cc(N2C(=O)Nc3c(C(=O)Nc4ccc(CCN5CCOCC5)cc4)sc4ncc(C#N)c2c34)c(Cl)cc1Cl [Cpd 6, 6-cyano-5-(2,4-dichloro-5-methoxy-phenyl)-4-oxo-4,5-dihydro-3H-1-thia-3,5,8-triaza-acenaphthylene-2-carboxylic acid [4-(2-morpholin-4-yl-ethyl)-phenyl]-amide] | – | – | 75 | –
